Here are results for one compound from US10471044B2, “Post nerve injury rehabilitation effect-enhancing agent comprising alkyl ether derivative or salt thereof” (FUJIFILM Toyama Chemical Co., Ltd., priority 2014, dated 2019).

Assay [1] concerns forelimb function lost after freezing damage-induced brain injury. The assay can be described thus: Recovery by training of forelimb function lost after freezing damage-induced brain injury. It counts as in vivo, C57BL/6J mice. The settings on record: mice, oral twice a day 30 mg/kg/time plus training 30 min/day, evaluated 21-49 days after damage, compared to the other groups (control, Compound A without training, training only), FIG. 1. The procedure:
Action of enhancing the recovery effect obtained by training the forelimb function lost after freezing damage-induced brain injury was examined. A test was performed using the following method, by referring to the method described in Journal of Neuroscience Methods, Vol. 193, Issue 1, Pages 82-85 (2010) and Nature, Vol. 462, Issue 7275, Pages 915-919 (2009). Six-week-old male C57BL/6J mice (Charles River Japan) were used in the test. The mice were raised in an environment in which they had free access to feed and water, under a light-dark cycle of 12 hours (light period: 7:00-19:00, dark period: 19:00-7:00). The mice were randomly assigned to the groups. [table] An acrylic rectangular enclosure (length×width×height; 15×8.5×20 cm) in which only the front face of the four faces was transparent, and the other three faces were black was used. A slit measuring 0.5 cm in width×13 cm in height was formed on the right side of the front face when seen from the front. A transparent acrylic plate measuring 8.5 cm in width×1.25 cm in height was used as the feed plate. Diced almonds (K's Factory, Co., Ltd.) were used as the feed for use in the evaluation. […] A case where a mouse was able to extend the left forelimb through the slit, and carry the diced almond into the mouth without dropping it was determined to be successful. […]

Assay [2] deals with forelimb function lost after internal capsule hemorrhage-induced brain injury. Description: Recovery by training of forelimb function lost after internal capsule hemorrhage-induced brain injury (mouse models). It counts as in vivo, C57BL/6J mice. The note with it: mice, oral once a day 20 mg/kg/time plus training 30 min/day, evaluated 31-63 days after induction, compared to trained control group, FIG. 2. As for the experimental part:
Action of enhancing the recovery effect obtained by training the forelimb function lost after internal capsule hemorrhage-induced brain injury was examined, using internal capsule hemorrhage mouse models. A test was carried out using the following method, by referring to Plos One, Vol. 8, e67691 (2013) and Behav Brain Res., Vol. 20, Issue 225, Pages 126-34 (2011). Six-week-old male C57BL/6J mice (Charles River Japan) were used in the test. The mice were raised in an environment in which they had free access to feed and water, under a light-dark cycle of 12 hours (light period: 7:00-19:00, dark period: 19:00-7:00). The mice were randomly assigned to the groups. [table] An acrylic rectangular enclosure (length×width×height; 15×8.5×20 cm) in which only the front face of the four faces was transparent, and the other three faces were black was used. A slit measuring 0.5 cm in width×13 cm in height was formed on the right side of the front face when seen from the front. A transparent acrylic plate measuring 8.5 cm in width×1.25 cm in height was used as the feed plate. Diced almonds (K's Factory, Co., Ltd.) were used as the feed for use in the evaluation. […] A case where a mouse was able to extend the left forelimb through the slit, and carry the diced almond into the mouth without dropping it was determined to be successful. […]

The subject of assay [3] is upper limb function lost after brain injury. Description: Recovery by rehabilitation-like training of upper limb function lost after brain injury (internal capsule hemorrhage cynomolgus monkey models). The settings on record: 1 animal. It counts as in vivo, cynomolgus monkeys. An excerpt:
Test Example 3 Action of enhancing the recovery effect obtained with rehabilitation-like training of the upper limb function lost after brain injury was examined, using internal capsule hemorrhage cynomolgus monkey models.
Two male cynomolgus monkeys (Tsukuba Primate Research Center, National Institute of Biomedical Innovation) were used in the test. The cynomolgus monkeys were raised in a breeding cage for old world monkeys (length×width×height; 79×47×80 cm) in which they had free access to feed and water, under a light-dark cycle of 12 hours (light period: 7:00-19:00 dark period: 19:00-7:00).
Motor learning and an upper limb function evaluation were performed by making the cynomolgus monkeys take feed provided in front of the breeding cage. A 3.5- or 7 mm square piece of apple was used as the feed for use in the evaluation.
In order to allow the cynomolgus monkeys to acclimate to the testing apparatus, and determine the dominant hand of each of the individuals, a 7 mm square piece of apple attached to a needle tip was provided in the center of the front face of the cage, and the behavior of the cynomolgus monkey taking the feed was observed. The hand more often used in a total of 150 trials (30 trials a day for 5 days) was determined as its dominant hand. […]

With `OC1CN(CCCOCCc2ccc3sccc3c2)C1` [Compound A, 1-(3-(2-(1-benzothiophen-5-yl)ethoxy)propyl)azetidin-3-ol], the “relative recovery rate (success rate of taking feed with left forelimb)” value in assay [1] was “much higher relative recovery rate within a short period”; in assay [2], “much higher relative recovery rate”. Moreover, the “recovery after the brain injury (upper limb function)” value in assay [3] (intramuscular once a day 3 mg/kg/time plus rehabilitation-like training, versus trained animal without Compound A (recovery limited)) is recorded as “remarkable tendency to recovery was observed”. For the same compound, in assay [3] (intramuscular once a day 3 mg/kg/time, after the beginning of the rehabilitation-like training, not observed in animal without Compound A), the accurate grasping entry was “accurate grasping similar to that before the brain injury was observed”.
